{
  "source": "patent US20160354364A1",
  "about": "“Pharmaceutical Compositions” (Alpharma Pharmaceuticals LLC, priority 2008, published 2016)",
  "origin": "cited, not measured here",
  "settings": "in vivo",
  "data": [
    {"smiles": "O=C1CC[C@@]2(O)[C@H]3Cc4ccc(O)c5c4[C@@]2(CCN3CC2CC2)[C@H]1O5", "note": "[Naltrexone, naltrexone]", "values": [
      {"measurement": "time of absorption following oral administration", "result": "≤ 1", "unit": "h"}
    ]}
  ]
}
